Experimental data as given in US9856511B2, “Protease deubiquitinating inhibitor screening” (priority 2011, dated 2018).

Key:
19S RP = target: T1, 19S RP (Homo sapiens, UniProt P54578+Q9Y5K5); experiment: Ubiquitin chain disassembly of K48/K63 linked ubiquitin tetramers by 19S RP; format: biochemical
T1 construct: purchased Boston Biochem E-366
Method: To this end the ability of b-AP15 to inhibit cleavage of recombinant ubiquitin-GFP was assessed. Recombinant ubiquitin-GFP is a substrate for 19S RP DUB activity (22). […] The type of ubiquitin bonds present in the polyubiquitin chain determines the fate of an ubiquitin-modified substrate. K48 linked polyubiquitin chains generally targets conjoined proteins for degradation (23), whereas K63 linked chains are involved in non-proteolytic roles including DNA repair (24) and mitotic chromosome segregation (25). […] The inhibition of ubiquitin chain disassembly observed could account for the accumulation of high molecular weight ubiquitin conjugates in b-AP15 treated cells.
The recombinant Ub-GFP plasmid pet19b Ub-M-GFP was generated as described (42). In brief recombinant Ub-GFP was purified from BL21 E. coli cells by His affinity purification. For cleavage assays 19S RP (25 nM) was incubated with 10 mM NEM, 250 μM TPEN or 50 μM b-AP15 for 10 min followed by the addition of recombinant Ub-GFP (200 nM). […] The level of Ub-GFP cleavage or ubiquitin disassembly was determined by immunoblotting with anti ubiquitin antibodies. […] The cleavage of ubiquitinated Hdm2 substrate and ubiquitinated Hdm2 was determined by immunoblotting with anti-Hdm2 antibodies. […]

chaperone genes = experiment: Microarray expression of chaperone genes after b-AP15 treatment; format: cell-based; conditions: b-AP15 vs vehicle
Method: The microarray based gene expression analysis and the Connectivity Map (CMAP) analysis was performed as previously described (40). Briefly, MCF7 cells were exposed to b-AP15 (1 μM, 6 h) or vehicle (0.1% DMSO, 6 h). RNA was isolated (RNeasy miniprep kit, Qiagen) followed by quality control, labelling and hybridization to Genome U133 Plus 2.0 arrays (Affymetrix Inc). Raw data was normalized using Mas5 (Affymetrix Inc.) and rank ordered. For selection of the 30 most induced (up tags) and the 30 most suppressed (down tags) transcripts the following criteria were used: Up tags, present call and expression over 300 arbitrary in the b-AP15 experiment; Down tags, present call after both b-AP15 and vehicle treatment, and expression over 300 arbitrary units in the vehicle experiment. For CMAP compatibility only tags (i.e. probes) present on HG U133A were used. Raw and normalized expression data have been deposited at Gene Expression Omnibus (http://www.ncbi.nlm.nih.gov/geo/) with accession number GSE24150.
Expression of chaperone genes observed in bAP15-treated cells (Table 1) is indicative of induction of a proteotoxic response.

26S proteasome = target: T2, 26S proteasome (Homo sapiens, UniProt P54578+Q9Y5K5); experiment: DUB inhibition assay, 26S proteasomes with ubiquitin-AMC; format: biochemical; conditions: Ub-AMC
T2 construct: purchased Boston Biochem E-365

USP14 = target: T3, USP14 (Homo sapiens, UniProt P54578); experiment: HA-UbVS competitive active-site labelling of 19S RP or 26S proteasomes; format: binding; conditions: 19S RP or 26S proteasomes incubated with b-AP15
T3 construct: purchased Boston Biochem E-366 (19S), E-365 (26S)
Source text: (§1) The deubiquitinating activity of the proteasome is attributed to the action of three DUBs, UCHL5, USP14 and POH1, all localized within the 19S RP 26-28. Both UCHL5 and USP14 are sensitive to N-ethylmaleimide (NEM), a general inhibitor of cysteine proteases, whereas POH1 is insensitive to inhibition by NEM but sensitive to metal chelators such as N,N,N,N-tetrakis-(2-pyridylmethyl)ethylenediamine (TPEN) (29). […] To identify specifically which DUBs were inhibited by b-AP15 treatment, competitive labelling experiments were performed using hemagglutinin tagged ubiquitin vinylsulphonone (HA-UbVS), an active site directed probe that irreversibly reacts with DUBs of the cysteine class (26).
(§2) For labelling of DUBs in cell lysates sub confluent cells were harvested by trypsinization, washed three times with PBS, and centrifuged at 1500 RPM for 5 min. Cell pellets were lysed with buffer (50 mM HEPES pH 7.4, 250 mM sucrose, 10 mM MgCl2, 2 mM ATP, 1 mM DTT) on ice for 15 min. Debris was removed by centrifugation and 25 μg of protein was labelled with 1 μM HA-UbVS for 30 min at 37° C. Samples were resolved by SDS-PAGE and analyzed by immunoblotting with indicated antibodies.
(§3) 19S RP were pre-treated with DMSO, NEM (10 mM) b-AP15 (50 μM) (FIG. 3a) or TPEN (250 μM) (FIG. 3b) followed by addition of Ub-GFP and immunoblotting with anti-GFP antibodies. […]

UCHL5 = target: T4, UCHL5 (Homo sapiens, UniProt Q9Y5K5); experiment: as above; format: binding; conditions: 19S RP or 26S proteasomes incubated with b-AP15
T4 construct: purchased Boston Biochem E-366 (19S), E-365 (26S)
Source text: as §1, §2, §3

SMILES: C=CC(=O)N1C/C(=C\c2ccc([N+](=O)[O-])cc2)C(=O)/C(=C/c2ccc([N+](=O)[O-])cc2)C1 [b-AP15]
- 19S RP processing of K48 and K63 linked ubiquitin tetramers (19S RP): inhibited 19S RP processing of both K48 and K63 linked ubiquitin tetramers
- Fold change HSPA6 (chaperone genes; probe set 117_at): 725
- Fold change DNAJB1 (chaperone genes; probe set 200666_s_at): 6
- Fold change HSPA1A (chaperone genes; probe set 200800_s_at): 4
- Fold change DNAJA1 (chaperone genes; probe set 200880_at): 4
- Fold change HSPA1B (chaperone genes; probe set 202581_at): 5
- Fold change DNAJB9 (chaperone genes; probe set 202843_at): 4
- Fold change DNAJB4 (chaperone genes; probe set 203810_at): 16
- Fold change DNAJB4 (chaperone genes; probe set 203811_s_at): 5
- Fold change HSPA4L (chaperone genes; probe set 205543_at): 13
- Fold change HSPH1 (chaperone genes; probe set 206976_s_at): 5
- Fold change HSPA4 (chaperone genes; probe set 211016_x_at): 4
- Fold change DNAJA4 (chaperone genes; probe set 225061_at): 30
- Fold change HSPD1 (chaperone genes; probe set 241716_at): 6
- inhibition of deubiquitinating activity of 26S proteasome (26S proteasome): inhibits the deubiquitinating activity
- Ub-VS labelling of USP14 (USP14): abolished Ub-VS labelling
- Ub-VS labelling of UCHL5 (UCHL5): abolished Ub-VS labelling
